Results as given in patent US12509439B2, “Anti-malarial agents” (UNIVERSITY OF KENTUCKY RESEARCH FOUNDATION, priority 2020, dated 2025).

How the values were obtained:
[1] = tested on: P. falciparum transgenic reporter strain NF54-HGL; test: Standard membrane feeding assay (transmission blocking, oocysts in mosquito midgut); assay type: cell-based; details: Plasmodium falciparum, NF54, read-out: IC50, transmission of P. falciparum from infected blood into mosquitos (number of oocysts in the mosquito midgut)
Procedure: Standard Membrane Feeding Assays (SMFA) were performed using P. falciparum transgenic reporter strain NF54-HGL that expresses a firefly luciferase gene from an hsp70 promoter (Vos et al., 2015, Scientific Reports, 5). Stage V gametocytes were pre-incubated with test compound prior to mosquito feeding. Test compound is dissolved in DMSO to achieve a stock solution of 10 mM that was serially diluted in DMSO to achieve concentrations […] above the final test concentration. Subsequently, 10 μl of diluted compound in DMSO is then added to 990 μl pre-warmed RPMI 1640 medium supplemented with 367 μM hypoxanthine, 25 mM HEPES and 25 mM NaHCO3 (‘incomplete medium’). 40 μl of this intermediate dilution is added to 360 μl of parasite culture and incubated for 48 hrs at 37° C. in Eppendorf tubes, resulting in 0.1% final DMSO concentration. Hereafter, 300 μl of the gametocyte culture/compound mix is added to 180 μl of packed red blood cells and centrifuged for 20 seconds at 10,000×g. […] Mosquitoes are processed for luminescence measurements to determine relative oocyst intensities as described previously (Stone et al., 2014, Journal of Infectious Diseases, 5, 16). Data is analyzed by fitting a four-parameter logistic regression model using maximum likelihood to find the best fit as described previously (Dechering et al., 2017, Scientific Reports, 7, 1) as shown under FIG. 5.

[2] = phase 1a clinical trials; cited from earlier work
[3] = tested on: malaria infection; details: human volunteers, single dose of 600 milligrams; cited from earlier work

## N#Cc1cc(NC(=O)[C@H]2c3ccccc3C(=O)N(CC(F)(F)F)[C@@H]2c2ccc(OC3CC3)nc2)ccc1F (single isomer, unassigned) [(1a)]
[1]
  IC50: 0.323 µM

## N#Cc1cc(NC(=O)[C@H]2c3ccccc3C(=O)N(CC(F)(F)F)[C@@H]2c2cccnc2)ccc1F [(+) SJ-733, 4-Isoquinolinecarboxamide, N-(3-cyano-4-fluorophenyl)-1,2,3,4-tetrahydro-1-oxo-3-(3-pyridinyl)-2-(2,2,2-trifluoroethyl)-, (3S,4S)-, reference compound]
[2]
  Metabolite formation in human pharmacokinetic studies: significant formation of an inactive N-oxide metabolite
[3]
  Parasitological cure: parasitological cure was not achieved
